This is an account of results in ChEMBL document CHEMBL1201862, “PubChem BioAssay data set” (2004).

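Five concentrations, 48 hours, 96-well plates. GI50 is the concentration that inhibits growth by half.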 Calls of active or inactive are those of the source. No stated cut-off is given here; in the data, active = GI50 up to about 1.1 µM and inactive = higher.

Among the test systems are UACC-257; NCI-H226; EKVX; T47D; LOX IMVI; HCT-116; OVCAR-3; Hs-578T; SK-OV-3; HT-29; RXF 393; OVCAR-5; TK-10; MDA-N; CAKI-1; SF-268; SNB-75; NCI-H23; SK-MEL-5; 786-0.
Holding throughout (test): growth of human tumour cells (NCI), 48 h

Take `Cc1cccc2cc3ccc4ccccc4c3cc12`: the GI50 in the experiment on UACC-257 was 20 µM (inactive); in the experiment with NCI-H226 it was 37 µM (inactive); with EKVX it was 21.2 µM (inactive); in the experiment on T47D, 22.1 µM (inactive); in the experiment with LOX IMVI, 39.4 µM (inactive); in the experiment on HCT-116 it was 30 µM (inactive). Also, the GI50 is 63.2 µM (inactive) in the experiment on OVCAR-3; > 100 µM (inactive) in the experiment with Hs-578T; > 100 µM (inactive) with SK-OV-3; 30.7 µM (inactive) in the experiment on HT-29; 75.2 µM (inactive) in the experiment with RXF 393; 38.5 µM (inactive) in the experiment on OVCAR-5. The GI50 with TK-10 was 36.6 µM (inactive); in the experiment with MDA-N, 38.9 µM (inactive); in the experiment with CAKI-1, 87.1 µM (inactive); with SF-268, > 100 µM (inactive); in the experiment on SNB-75, 69.2 µM (inactive); with NCI-H23 it was 54.5 µM (inactive). Also, the results for the GI50 in the experiment on SK-MEL-5 and in the experiment with 786-0 were 21.9 µM (inactive) and 41.7 µM (inactive), respectively.

With `O=c1ccc(=O)n(-c2ccccc2)[nH]1`, the GI50 in the experiment on UACC-257, in the experiment on NCI-H226, with EKVX, with T47D, in the experiment with LOX IMVI and with HCT-116 was > 100 µM (inactive) in each case. Besides, the GI50 in the experiment with OVCAR-3, in the experiment on Hs-578T, in the experiment with SK-OV-3, in the experiment on HT-29, in the experiment with RXF 393 and in the experiment on OVCAR-5 was > 100 µM (inactive) each time. Also, the GI50 in the experiment on TK-10, in the experiment with MDA-N, with CAKI-1, with SF-268, in the experiment on SNB-75 and in the experiment with NCI-H23 was > 100 µM (inactive) in each case. Besides, the GI50 with SK-MEL-5 and with 786-0 was > 100 µM (inactive) throughout.

Consider `CC(=O)OC1C(O)C(C)OC(OC2C(OC(=O)C3CCC4C(C3)OC3(CC(OC(=O)/C=C/c5ccccc5)C(C)CO3)C43CO3)OC(C)C(O)C2OC(C)=O)C1O` (stereo not given), for which the GI50 in the experiment on UACC-257 was 0.0205 µM (active); in the experiment with NCI-H226, 0.0142 µM (active); in the experiment with EKVX, 0.0148 µM (active); with T47D it was 0.00216 µM (active); with LOX IMVI, 0.00463 µM (active); with HCT-116, 0.00661 µM (active). The GI50 was 0.0115 µM (active) with OVCAR-3; 0.00124 µM (active) in the experiment with Hs-578T; 0.0145 µM (active) with SK-OV-3; 0.00689 µM (active) in the experiment on HT-29; 0.0319 µM (active) in the experiment with RXF 393; 0.0291 µM (active) in the experiment on OVCAR-5. Also, the GI50 was 0.0506 µM (active) in the experiment with TK-10; 0.00269 µM (active) in the experiment with MDA-N; 0.285 µM (active) in the experiment with CAKI-1; 0.00849 µM (active) with SF-268; 0.00867 µM (active) with SNB-75; 0.0123 µM (active) in the experiment on NCI-H23. Also, the GI50 is 0.00418 µM (active) with SK-MEL-5 and 0.0132 µM (active) in the experiment with 786-0.

`Cc1cccc(N2C(=O)C3ON(C(C(N)=O)c4ccccc4)C(c4c5ccccc5c(Cl)c5ccccc45)C3C2=O)c1C` (stereo not given): the GI50 is 6.87 µM (inactive) in the experiment on UACC-257; 7.13 µM (inactive) with NCI-H226; 9.23 µM (inactive) with EKVX; 9.57 µM (inactive) in the experiment on T47D; 7.1 µM (inactive) in the experiment with LOX IMVI; 1.34 µM (inactive) with HCT-116. The GI50 in the experiment on OVCAR-3 is 8.43 µM (inactive); with Hs-578T, 16.6 µM (inactive); in the experiment on SK-OV-3, 18.8 µM (inactive); in the experiment with HT-29, 7.82 µM (inactive); with RXF 393, 5.66 µM (inactive); with OVCAR-5, 10.3 µM (inactive). The GI50 was 11.8 µM (inactive) in the experiment on TK-10; 3.3 µM (inactive) with MDA-N; 9.06 µM (inactive) in the experiment with CAKI-1; 9.59 µM (inactive) in the experiment on SF-268; 8.05 µM (inactive) in the experiment with SNB-75; 11.6 µM (inactive) in the experiment with NCI-H23. Besides, the figures for the GI50 in the experiment with SK-MEL-5 and in the experiment on 786-0 were 7.03 µM (inactive) and 9.62 µM (inactive), respectively.

As for `CNC(=O)OC1/C(C)=C\C(C)C(O)C(OC)CC(C)CC2=C(OC)C(=O)C=C(C2=O)N(C)C(=O)/C(C)=C/C=C\C1OC` (stereo not given), the GI50 was 5.02 µM (inactive) in the experiment on UACC-257; 19.5 µM (inactive) with NCI-H226; 11.9 µM (inactive) with EKVX; 1.57 µM (inactive) with T47D; 4.68 µM (inactive) in the experiment with LOX IMVI; 8.05 µM (inactive) with HCT-116. The GI50 is 3.8 µM (inactive) in the experiment with OVCAR-3; 4.03 µM (inactive) in the experiment with Hs-578T; 10.2 µM (inactive) in the experiment with SK-OV-3; 1.19 µM (inactive) with HT-29; 2.25 µM (inactive) in the experiment on RXF 393; 13.1 µM (inactive) in the experiment with OVCAR-5. For the same molecule, the GI50 with TK-10 was 7.64 µM (inactive); with MDA-N, 1.33 µM (inactive); in the experiment with CAKI-1, 7.4 µM (inactive); in the experiment with SF-268, 9.73 µM (inactive); with SNB-75 it was 14.2 µM (inactive); in the experiment with NCI-H23 it was 4.86 µM (inactive). Further, the GI50 was 7.64 µM (inactive) with SK-MEL-5 and 4.31 µM (inactive) in the experiment on 786-0.

For the molecule `CC1(C)OC(=C(C#N)C#N)C(C#N)=C1/C=C/c1ccncc1`, the GI50 in the experiment on UACC-257 is 2.95 µM (inactive); in the experiment with NCI-H226, 2.43 µM (inactive); in the experiment on EKVX, 2.32 µM (inactive); in the experiment with T47D, 2.48 µM (inactive); in the experiment on LOX IMVI, 1.86 µM (inactive); in the experiment with HCT-116 it was 1.91 µM (inactive). For the same molecule, the GI50 is 1.84 µM (inactive) in the experiment on OVCAR-3; 3.33 µM (inactive) in the experiment with Hs-578T; 4.66 µM (inactive) with SK-OV-3; 2.11 µM (inactive) with HT-29; 2.29 µM (inactive) in the experiment on RXF 393; 2.89 µM (inactive) in the experiment with OVCAR-5. Further, the GI50 in the experiment on TK-10 was 2.08 µM (inactive); in the experiment on MDA-N, 2.58 µM (inactive); in the experiment with CAKI-1, 1.97 µM (inactive); in the experiment on SF-268, 2.21 µM (inactive); in the experiment on SNB-75, 3.05 µM (inactive); in the experiment with NCI-H23, 2.35 µM (inactive). The GI50 in the experiment on SK-MEL-5 is 4.37 µM (inactive); in the experiment on 786-0 it was 2.03 µM (inactive).

Regarding `NC(=O)/N=C1\NCCC(=O)N1CCc1c[nH]c2ccccc12`, the GI50 is 18.5 µM (inactive) in the experiment on UACC-257; 18.2 µM (inactive) in the experiment with NCI-H226; 14.6 µM (inactive) in the experiment with EKVX; 27.5 µM (inactive) in the experiment with T47D; 11 µM (inactive) in the experiment on LOX IMVI; 12.4 µM (inactive) in the experiment with HCT-116. The GI50 in the experiment with OVCAR-3 is 16 µM (inactive); in the experiment with Hs-578T it was 20.5 µM (inactive); in the experiment on SK-OV-3, 50.7 µM (inactive); with HT-29 it was 17.1 µM (inactive); in the experiment with RXF 393, 12.1 µM (inactive); with OVCAR-5, 39.4 µM (inactive). Besides, the GI50 was 17.5 µM (inactive) in the experiment with TK-10; 19.9 µM (inactive) with MDA-N; 0.426 µM (active) with CAKI-1; 13.8 µM (inactive) with SF-268; 10.2 µM (inactive) with SNB-75; 22.7 µM (inactive) in the experiment with NCI-H23. Also, the figures for the GI50 with SK-MEL-5 and in the experiment on 786-0 were 18.7 µM (inactive) and 24 µM (inactive), respectively.

As for `CCC(=O)N1NC(=O)C(CC)(CC)C1=O`, the GI50 in the experiment on UACC-257, in the experiment with NCI-H226, with EKVX, with T47D, in the experiment with LOX IMVI and in the experiment with HCT-116 was > 100 µM (inactive) each time. In addition, the GI50 with OVCAR-3 was > 100 µM (inactive); in the experiment with Hs-578T, 83 µM (inactive); in the experiment on SK-OV-3 it was > 100 µM (inactive); in the experiment on HT-29 it was > 100 µM (inactive); with RXF 393 it was > 100 µM (inactive); in the experiment on OVCAR-5 it was > 100 µM (inactive). Further, the GI50 in the experiment with TK-10 was > 100 µM (inactive); in the experiment with MDA-N, > 100 µM (inactive); with CAKI-1 it was > 100 µM (inactive); in the experiment with SF-268 it was > 100 µM (inactive); with SNB-75, 36.8 µM (inactive); in the experiment with NCI-H23, > 100 µM (inactive). The GI50 with SK-MEL-5 and with 786-0 was > 100 µM (inactive) throughout.

Regarding `COc1ccc(OCc2nc3cc(C(F)(F)F)ccc3nc2-c2ccccc2)cc1`, the GI50 in the experiment on UACC-257 is > 100 µM (inactive); in the experiment on NCI-H226, > 100 µM (inactive); in the experiment on EKVX, > 100 µM (inactive); with T47D it was 13.5 µM (inactive); in the experiment with LOX IMVI, > 100 µM (inactive); in the experiment on HCT-116, > 100 µM (inactive). Further, the GI50 in the experiment on OVCAR-3, with Hs-578T, in the experiment on SK-OV-3, in the experiment on HT-29, with RXF 393 and in the experiment with OVCAR-5 was > 100 µM (inactive) each time. The GI50 with TK-10, with MDA-N, with CAKI-1, with SF-268, in the experiment on SNB-75 and with NCI-H23 was > 100 µM (inactive) throughout. In addition, the GI50 in the experiment on SK-MEL-5 and in the experiment with 786-0 was > 100 µM (inactive) each time.

For `Cc1ccc(S(=O)(=O)N2CCCCN(S(=O)(=O)c3ccc(C)cc3)Cc3ccccc3OCCOCCOc3c4cccc3Cc3cccc5c3OCCOCCOc3ccccc3CN(S(=O)(=O)c3ccc(C)cc3)CCCN(S(=O)(=O)c3ccc(C)cc3)Cc3ccccc3OCCOCCOc3c(cccc3C4)Cc3cccc(c3OCCOCCOc3ccccc3C2)C5)cc1`, the GI50 with UACC-257, with NCI-H226, with EKVX, with T47D, in the experiment on LOX IMVI and in the experiment on HCT-116 was > 100 µM (inactive) each time. In addition, the GI50 in the experiment on OVCAR-3, with Hs-578T, in the experiment on SK-OV-3, in the experiment on HT-29, in the experiment on RXF 393 and in the experiment on OVCAR-5 was > 100 µM (inactive) in each case. The GI50 with TK-10, in the experiment on MDA-N, in the experiment on CAKI-1, in the experiment on SF-268, in the experiment with SNB-75 and in the experiment with NCI-H23 was > 100 µM (inactive) in each case. The GI50 with SK-MEL-5 and in the experiment with 786-0 was > 100 µM (inactive) in each case.
